Source: patent publication US20260207623A1, “USE OF ESTETROL IN HEPATICALLY IMPAIRED PATIENTS” (ESTETRA SRL, priority 2022, published 2026)

Assay: Phase 1 pharmacokinetic study of a single oral dose of 20 mg E4 monohydrate in female subjects with normal hepatic function and mild, moderate or severe hepatic impairment (plasma, LC-MS/MS, non-compartmental analysis)
Type: in vivo, human
Settings: for AUC0-24 h, GM / AUC0-24 h, Mean / AUC0-24 h, Median / AUCinf, GM / AUCinf, Mean / AUCinf, Median / AUClast, GM / AUClast, Mean / AUClast, Median / Cmax, GM / Cmax, Mean / Cmax, Median / T1/2, GM / T1/2, Mean / T1/2, Median / Tmax, Median / λz, GM / λz, Mean / λz, Median: single oral dose 20 mg E4 monohydrate, plasma
Experimental: This was a Phase 1, multi-centre, open-label, PK, and safety study of a single oral dose of 20 mg E4 monohydrate in female subjects with normal hepatic function (Group 1), mild hepatic impairment (Group 2), moderate hepatic impairment (Group 3), and severe hepatic impairment (Group 4), as defined using the Child-Pugh classification at Screening.
The study consisted of an eligibility Screening period (within 28 days prior to study drug administration), an Assessment Period with in-house period and outpatient visits (including a single oral dose of 20 mg E4 on Day 1), and a follow up visit. All subjects were confined to the study site from Day-1 (the day before dosing) until Day 4 and returned to the site every day from Day 5 to Day 9. Alternatively, the subjects could stay for a prolonged in-house period in agreement with the Investigator. The follow-up visit occurred on Day 14 (+2 days).
All subjects arrived at the study site in the morning of Day-1 in a fasted state (no food for at least 8 h, water was allowed) to have the scheduled assessments performed in order to confirm eligibility as outlined in the inclusion and exclusion criteria (Section 2.3.1 and Section 2.3.2, respectively). In the morning of Day 1 following an overnight fast, the subjects received oral dosing of 20 mg E4 monohydrate and remained at the site. Study-related assessments were performed at time points indicated in the Schedule of Assessments in Table 2.
Serial blood sampling for PK assessments started on Day 1 and proceeded until Day 9 according to the Pharmacokinetic Sampling Schedule presented in Table 3.
Each enrolled subject was to receive a single oral dose of 20 mg of E4 (estetrol) as monohydrate as a film-coated tablet.
Study drug was administered to subjects in the morning after an overnight fast of at least 8 h.
Calculation of non-compartmental PK parameters were done using WinNonlin™ Professional, Version 6.3 or higher.
The primary PK parameters to be analyzed for E4 in plasma: • Cmax=maximum observed plasma concentration • AUCinf=area under the concentration-time curve (AUC) from time zero extrapolated to infinity
The analysis of E4 and the metabolites E4-3-glucuronide and E4-16-glucuronide in plasma samples were performed at the Bioanalytical Laboratory of the CRO using a validated liquid chromatography-mass spectrometry/mass spectrometry method.
Individual and mean plasma concentrations at each sampling time point for E4 are presented by listings and descriptive summary statistics including means, geometric means (GMs), medians, ranges, standard deviations (SD) and coefficients of variation (CV). Individual, mean and/or median concentrations per hepatic function group were plotted versus time on semilogarithmic scales.
PK parameters were calculated by non-compartmental analysis. PK parameters were analysed using descriptive statistics and are presented by hepatic function group.
Analysis of variance (ANOVA) were used to compare primary PK parameters of E4 (Cmax and AUCinf) between subjects with hepatic impairment and subjects with normal hepatic function in an exploratory approach, using the log-transformed value of each PK parameter as dependent variable, and the hepatic impairment group (normal, mild, moderate, and severe) as a fixed classification factor. Geometric least squares means were used to calculate the ratios of primary PK parameters for each hepatic impairment group to those in the control group, along with 90% confidence intervals (CIs).
Additionally, the impact of age and BMI on the effect of hepatic impairment were evaluated using an ANOVA model similar as the ANOVA model described above, but with the interaction between each factor and the hepatic impairment group included as an additional factor.
The relationship between log-transformed PK parameters (Cmax and AUCinf) and continuous parameters (albumin, total bilirubin, and prothrombin time) used for the Child-Pugh score was explored by a linear regression approach. […]

AUC0-24 h, GM (Mild hepatic impairment): 1017.08 ng·h/mL | AUC0-24 h, Mean (Mild hepatic impairment): 1038.91 ng·h/mL | AUC0-24 h, Median (Mild hepatic impairment): 1061.93 ng·h/mL | AUCinf, GM (Mild hepatic impairment): 1380.13 ng·h/mL | AUCinf, Mean (Mild hepatic impairment): 1389.24 ng·h/mL | AUCinf, Median (Mild hepatic impairment): 1358.39 ng·h/mL | AUClast, GM (Mild hepatic impairment): 1350.15 ng·h/mL | AUClast, Mean (Mild hepatic impairment): 1364.27 ng·h/mL | AUClast, Median (Mild hepatic impairment): 1329.47 ng·h/mL | Cmax, GM (Mild hepatic impairment): 711.100 ng/mL | Cmax, Mean (Mild hepatic impairment): 745.750 ng/mL | Cmax, Median (Mild hepatic impairment): 712.500 ng/mL | T1/2, GM (Mild hepatic impairment): 24.080 h | T1/2, Mean (Mild hepatic impairment): 24.634 h | T1/2, Median (Mild hepatic impairment): 25.699 h | Tmax, Median (Mild hepatic impairment): 0.490 h | λz, GM (Mild hepatic impairment): 0.0300 h⁻¹ | λz, Mean (Mild hepatic impairment): 0.0295 h⁻¹ | λz, Median (Mild hepatic impairment): 0.0270 h⁻¹ | AUC0-24 h, GM (Moderate hepatic impairment): 1244.09 ng·h/mL | AUC0-24 h, Mean (Moderate hepatic impairment): 1293.40 ng·h/mL | AUC0-24 h, Median (Moderate hepatic impairment): 1323.09 ng·h/mL | AUCinf, GM (Moderate hepatic impairment): 1459.97 ng·h/mL | AUCinf, Mean (Moderate hepatic impairment): 1518.70 ng·h/mL | AUCinf, Median (Moderate hepatic impairment): 1534.85 ng·h/mL | AUClast, GM (Moderate hepatic impairment): 1375.56 ng·h/mL | AUClast, Mean (Moderate hepatic impairment): 1435.97 ng·h/mL | AUClast, Median (Moderate hepatic impairment): 1459.15 ng·h/mL | Cmax, GM (Moderate hepatic impairment): 734.210 ng/mL | Cmax, Mean (Moderate hepatic impairment): 785.625 ng/mL | Cmax, Median (Moderate hepatic impairment): 759.500 ng/mL | T1/2, GM (Moderate hepatic impairment): 13.050 h | T1/2, Mean (Moderate hepatic impairment): 14.217 h | T1/2, Median (Moderate hepatic impairment): 12.381 h | Tmax, Median (Moderate hepatic impairment): 0.985 h | λz, GM (Moderate hepatic impairment): 0.0500 h⁻¹ | λz, Mean (Moderate hepatic impairment): 0.0580 h⁻¹ | λz, Median (Moderate hepatic impairment): 0.0560 h⁻¹ | AUC0-24 h, GM (Normal hepatic function): 643.44 ng·h/mL | AUC0-24 h, Mean (Normal hepatic function): 676.36 ng·h/mL | AUC0-24 h, Median (Normal hepatic function): 613.15 ng·h/mL | AUCinf, GM (Normal hepatic function): 896.29 ng·h/mL | AUCinf, Mean (Normal hepatic function): 946.46 ng·h/mL | AUCinf, Median (Normal hepatic function): 932.27 ng·h/mL | AUClast, GM (Normal hepatic function): 867.85 ng·h/mL | AUClast, Mean (Normal hepatic function): 919.86 ng·h/mL | AUClast, Median (Normal hepatic function): 894.59 ng·h/mL | Cmax, GM (Normal hepatic function): 353.110 ng/mL | Cmax, Mean (Normal hepatic function): 419.750 ng/mL | Cmax, Median (Normal hepatic function): 513.000 ng/mL | T1/2, GM (Normal hepatic function): 18.220 h | T1/2, Mean (Normal hepatic function): 19.245 h | T1/2, Median (Normal hepatic function): 17.755 h | Tmax, Median (Normal hepatic function): 0.500 h | λz, GM (Normal hepatic function): 0.0400 h⁻¹ | λz, Mean (Normal hepatic function): 0.0402 h⁻¹ | λz, Median (Normal hepatic function): 0.0391 h⁻¹ | AUC0-24 h, GM (Severe hepatic impairment): 1977.74 ng·h/mL | AUC0-24 h, Mean (Severe hepatic impairment): 2295.22 ng·h/mL | AUC0-24 h, Median (Severe hepatic impairment): 1922.86 ng·h/mL | AUCinf, GM (Severe hepatic impairment): 2081.97 ng·h/mL | AUCinf, Mean (Severe hepatic impairment): 2467.86 ng·h/mL | AUCinf, Median (Severe hepatic impairment): 1959.93 ng·h/mL | AUClast, GM (Severe hepatic impairment): 2057.13 ng·h/mL | AUClast, Mean (Severe hepatic impairment): 2443.30 ng·h/mL | AUClast, Median (Severe hepatic impairment): 1951.71 ng·h/mL | Cmax, GM (Severe hepatic impairment): 901.010 ng/mL | Cmax, Mean (Severe hepatic impairment): 952.625 ng/mL | Cmax, Median (Severe hepatic impairment): 894.000 ng/mL | T1/2, GM (Severe hepatic impairment): 8.450 h | T1/2, Mean (Severe hepatic impairment): 10.103 h | T1/2, Median (Severe hepatic impairment): 8.542 h | Tmax, Median (Severe hepatic impairment): 0.500 h | λz, GM (Severe hepatic impairment): 0.0800 h⁻¹ | λz, Mean (Severe hepatic impairment): 0.0995 h⁻¹ | λz, Median (Severe hepatic impairment): 0.0882 h⁻¹ | time to primary peak of GM plasma concentrations (all groups): ≤ 1 h | time post dose until which concentrations remained above LLOQ in at least half of the subjects (mild hepatic impairment): 96 h | time post dose until which concentrations remained above LLOQ in at least half of the subjects (moderate hepatic impairment): 72 h | time post dose until which concentrations remained above LLOQ in at least half of the subjects (normal hepatic function): 96 h | time post dose until which concentrations remained above LLOQ in at least half of the subjects (severe hepatic impairment): 48 h | Maximum value of AUC0-24 h, severe hepatic impairment compared with control group (severe vs control group): ~ 5 fold | Maximum value of AUCinf, severe hepatic impairment compared with control group (severe vs control group): ~ 4 fold | Maximum value of AUClast, severe hepatic impairment compared with control group (severe vs control group): ~ 4 fold | Maximum value of Cmax, severe hepatic impairment compared with control group (severe vs control group): ~ 2 fold
Structure (SMILES): CC12CCC3c4ccc(O)cc4CCC3C1C(O)C(OC1OC(C(=O)O)C(O)C(O)C1O)C2O (stereo not shown) [E4-16-glucuronide]
